According to publication PMC9974934, “Bifunctional small molecules targeting PD-L1/CXCL12 as dual immunotherapy for cancer treatment” (Signal Transduction and Targeted Therapy, 2023):
Like-named read-outs stand apart in the source and are kept apart here.

Assays:
PD-1/PD-L1 interaction = target: T1, PD-1/PD-L1 interaction (Homo sapiens, UniProt Q9NZQ7); test: PD-1/PD-L1 HTRF assay; format: biochemical; details: read-out: IC50, anti-PD-1/PD-L1 potency
T1 construct: purchased Cisbio 64ICP01PEG&64ICP01PEH

[1] = test system: HepG2 cells co-cultured with Jurkat T cells; test: HepG2 cell mortality in Jurkat T & HepG2 co-culture model; format: cell-based; details: CCK-8
Experimental: Assessment of HepG2 cell mortality rate (Cellular). Firstly, HepG2 cells were stimulated with human IFN-γ (Peprotech, catalog number: 300-02) to express hPD-L1 stably. Jurkat T cells were stimulated with PHA-P (Invivogen, catalog number: inh-phap). Then, HepG2 (5×10^4) and Jurkat T cells (5×10^4) were added to the co-cultured model. […] Finally, the Jurkat T cells were completely removed by washing the supernatant (200 μL) with cold PBS for 4 times. The mortality rate of HepG2 cells was determined by CCK-8 assay (Dojindo, CCK8, 500 test).

murine CXCL12 = target: T2, murine CXCL12 (Mus musculus, UniProt P40224); test: SPR binding to mCXCL12
T2 construct: purchased Sino Biological Biotics Inc 50025-MNAE-2
Experimental: (§1) SPR, ITC, CD assay. […] SPRi assay was carried out using PlexAray HT.

B16-F10 melanoma tumors = test: In vivo efficacy in B16-F10 melanoma model; details: mouse B16-F10 model
Excerpt: (§2) In vivo efficacy study in a melanoma model and CT26 tumor model. Protocols for animal experiments (B16-F10 and CT-26 tumor model) were approved by the NIACEC (National Institutional Animal Care & Ethical Committee) at SMU (Southern Medical University). C57BL/6 male mice (6-8 weeks old) were purchased from Liaoning Changsheng Biosciences. Briefly, A total of 2×10^5 B16-F10 melanoma cells or CT26 cells (1×10^6) were inoculated into mouse (in the right flank) according to protocols of tumor transplantation studies in mice. […] Tumor volume was measured with a traceable electronic digital caliper (every 2 days).

[2] = test system: CXCL12-mediated cell migration, THP-1 cells; test: Transwell chemotaxis test in THP-1 cells; format: cell-based
[3] = test system: CT-26 colon syngeneic tumor; test: In vivo efficacy in CT-26 colon syngeneic tumor model; design: species or system mouse; details: 75 mg/kg for 17 days
Excerpt: as §2
Figure. […] Then, sacrificed and tumors weights and volumes were measured. (A) Images of tumors and weight of tumors; (B) changes of body weights of mice during treatment; (C) Individual tumor growth curves over time (D) changes of tumor volume during treatment. *P < 0.05, **P < 0.01, and ****P < 0.0001 (n=3).

[4] = Serum biochemistry for liver and kidney function; format: in vivo, mouse; details: mice
[5] = Pharmacokinetic study in male SD rats; format: in vivo, rat; details: for MRT last: read-out: MRT(0–t); for MRT inf: read-out: MRT(0–∞)
Experimental: Pharmacokinetic Study in Male SD Rats. Male SD rats (300–360 g) were purchased from Liaoning Changsheng Biotechnology Co., Ltd. Diet. […] The mobile phase consisted of a mixture of solvent A (acetonitrile) and solvent B (formic acid/ ultrapure water, 1:1000, v/v). The linear gradient program for the mobile phase was set as follows: 0 min 10% A; 0.5 min 30% A; 1 min 95% A; 2 min 95% A; 2.3 min 10% A. The flow rate of the mobile phase was 0.4 mL/min, and the injection volume was 2 μL. The XEVO TQD triple quadrupole mass spectrometer was equipped with an electrospray ionization (ESI) source; multiple reaction monitoring (MRM) mode was selected for quantitation. The Mass Lynx 4.1 software (Waters Corp.) was used for data acquisition. Mass spectral data were obtained in positive electrospray mode (ESI+) in MRM mode.

[6] = Creatine kinase isoenzyme assay; format: in vivo, mouse; details: mice
[7] = test system: CXCL12-mediated Ca2+ cellular responses in THP-1 cells; test: Calcium flux assay in THP-1 cells; format: cell-based; details: spectrofluorometry
Experimental: Calcium flux assays. THP-1 cells were incubated with Fluo-4AM (Invitrogen, catalog number: F14201) calcium-dependent fluorophore for 0.5 h, washed and resuspended. […] Ca^2+ flux was measured (Ex = 488 nm; Em = 520 nm).

[8] = H&E staining of mice organs; format: in vivo, mouse
human CXCL12 = target: T3, human CXCL12 (Homo sapiens, UniProt P48061); test: SPR binding to hCXCL12
T3 construct: purchased Sino Biological Biotics Inc 13511-HNCE-2
Experimental: as §1

[9] = rat, plasma, iv, I.V. 1 mg/kg, mean ± SD
[10] = rat, plasma, po, P.O. 18 mg/kg, mean ± SD

T1 sequence (Q9NZQ7 19-238 limits assumed): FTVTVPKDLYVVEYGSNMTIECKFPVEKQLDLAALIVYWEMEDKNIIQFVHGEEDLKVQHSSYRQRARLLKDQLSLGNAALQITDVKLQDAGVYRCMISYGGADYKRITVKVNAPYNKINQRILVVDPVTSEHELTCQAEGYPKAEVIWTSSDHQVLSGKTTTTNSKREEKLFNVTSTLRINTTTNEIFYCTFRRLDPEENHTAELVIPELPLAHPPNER
T3 sequence (P48061 22-93): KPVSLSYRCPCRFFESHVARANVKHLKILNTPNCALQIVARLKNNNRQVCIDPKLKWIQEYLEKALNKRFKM
T2 sequence (P40224 22-93): as the sequence (P48061 22-93) above, with V18I, F70L counted along it

COc1ccc(C(=O)/C=C/c2ccc(OCc3ccc(CNC(=O)CCCCNC(=O)C4CCCCN4Cc4ccc(OCc5cccc(-c6ccccc6)c5C)c(Br)c4)cc3)c(OC)c2)cc1 (centres unmarked) [CP1]
IC50 (PD-1/PD-L1 interaction): > 1 µM

COc1ccc(C(=O)/C=C/c2ccc(OCc3ccc(CNC(=O)C4CCCCN4Cc4ccc(OCc5cccc(-c6ccccc6)c5C)c(Br)c4)cc3)c(OC)c2)cc1 (centres unmarked) [CP2]
IC50 (PD-1/PD-L1 interaction): > 1 µM
melting point: 124.8 to 125.9 °C

COc1ccc(C(=O)/C=C/c2ccc(OCc3ccc(CNC(=O)C4CCN(C(=O)C5CCCCN5Cc5ccc(OCc6cccc(-c7ccccc7)c6C)c(Br)c5)CC4)cc3)c(OC)c2)cc1 (centres unmarked) [CP3]
IC50 (PD-1/PD-L1 interaction): > 1 µM

COc1ccc(C(=O)/C=C/c2ccc(OCc3ccc(CNC(=O)CCCNC(=O)C4CCCCN4Cc4ccc(OCc5cccc(-c6ccccc6)c5C)c(Br)c4)cc3)c(OC)c2)cc1 (centres unmarked) [CP4]
IC50 (PD-1/PD-L1 interaction): > 1 µM

COc1ccc(C(=O)/C=C/c2ccc(OCc3ccc(CNC(=O)CCNC(=O)C4CCCCN4Cc4ccc(OCc5cccc(-c6ccccc6)c5C)c(Br)c4)cc3)c(OC)c2)cc1 (centres unmarked) [CP5]
IC50 (PD-1/PD-L1 interaction): > 1 µM

COc1ccc(C(=O)/C=C/c2ccc(OCc3ccc(CNC(=O)C4CCCCN4Cc4cc(Cl)c(OCc5cccc(-c6ccccc6)c5C)cc4OCc4ccc(OC(F)(F)F)cc4)cc3)c(OC)c2)cc1 (centres unmarked) [CP6]
IC50 (PD-1/PD-L1 interaction): > 1 µM

COc1ccc(C(=O)/C=C/c2ccc(OCc3ccc(CNC(=O)C4CCN(C(=O)C5CCCCN5Cc5cc(Cl)c(OCc6cccc(-c7ccccc7)c6C)cc5OCc5ccc(OC(F)(F)F)cc5)CC4)cc3)c(OC)c2)cc1 (centres unmarked) [CP7]
IC50 (PD-1/PD-L1 interaction): > 1 µM

COc1ccc(C(=O)/C=C/c2ccc(OCc3ccc(CNC(=O)CCCNC(=O)C4CCCCN4Cc4cc(Cl)c(OCc5cccc(-c6ccccc6)c5C)cc4OCc4ccc(OC(F)(F)F)cc4)cc3)c(OC)c2)cc1 (centres unmarked) [CP8]
IC50 (PD-1/PD-L1 interaction): > 1 µM

COc1ccc(C(=O)/C=C/c2ccc(OCc3ccc(CNC(=O)CCCNC(=O)C(C)(C)NCc4cc(Cl)c(OCc5cccc(-c6ccccc6)c5C)cc4OCc4cccc(C#N)c4)cc3)c(OC)c2)cc1 [CP9]
IC50 (PD-1/PD-L1 interaction): 0.101 µM

COc1ccc(C(=O)/C=C/c2ccc(OCc3ccc(CNC(=O)C(C)(C)NCc4cc(Cl)c(OCc5cccc(-c6ccccc6)c5C)cc4OCc4cccc(C#N)c4)cc3)c(OC)c2)cc1 [CP10]
IC50 (PD-1/PD-L1 interaction): > 1 µM

COc1ccc(C(=O)/C=C/c2ccc(OCc3ccc(CNC(=O)CCNC(=O)C(C)(C)NCc4cc(Cl)c(OCc5cccc(-c6ccccc6)c5C)cc4OCc4cccc(C#N)c4)cc3)c(OC)c2)cc1 [CP11]
IC50 (PD-1/PD-L1 interaction): 0.87 µM

COc1ccc(C(=O)/C=C/c2ccc(OCc3ccc(CNC(=O)CCCCNC(=O)C(C)(C)NCc4cc(Cl)c(OCc5cccc(-c6ccccc6)c5C)cc4OCc4cccc(C#N)c4)cc3)c(OC)c2)cc1 [CP12]
IC50 (PD-1/PD-L1 interaction): > 1 µM

CCOC(=O)COc1cc(OCc2cccc(-c3ccccc3)c2C)c(Cl)cc1CN1CCCCC1C(=O)NCCC(=O)NCc1ccc(COc2ccc(/C=C/C(=O)c3ccc(OC)cc3)cc2OC)cc1 (centres unmarked) [CP13]
IC50 (PD-1/PD-L1 interaction): > 1 µM

CCOC(=O)COc1cc(OCc2cccc(-c3ccccc3)c2C)c(Cl)cc1CN1CCCCC1C(=O)NCc1ccc(COc2ccc(/C=C/C(=O)c3ccc(OC)cc3)cc2OC)cc1 (centres unmarked) [CP14]
IC50 (PD-1/PD-L1 interaction): > 1 µM

CCOC(=O)COc1cc(OCc2cccc(-c3ccccc3)c2C)c(Cl)cc1CN1CCCCC1C(=O)N1CCC(C(=O)NCc2ccc(COc3ccc(/C=C/C(=O)c4ccc(OC)cc4)cc3OC)cc2)CC1 (centres unmarked) [CP15]
IC50 (PD-1/PD-L1 interaction): > 1 µM

CCOC(=O)COc1cc(OCc2cccc(-c3ccccc3)c2C)c(Cl)cc1CN1CCCCC1C(=O)NCCCC(=O)NCc1ccc(COc2ccc(/C=C/C(=O)c3ccc(OC)cc3)cc2OC)cc1 (centres unmarked) [CP16]
IC50 (PD-1/PD-L1 interaction): > 1 µM

COc1ccc(C(=O)/C=C/c2ccc(OCc3ccc(CNC(=O)C4CCCCN4Cc4cc(Cl)c(OCc5cccc(-c6ccccc6)c5C)cc4OCc4cccc(C#N)c4)cc3)c(OC)c2)cc1 (centres unmarked) [CP17]
IC50 (PD-1/PD-L1 interaction): 0.127 µM
melting point: 128.1 to 128.9 °C

COc1ccc(C(=O)/C=C/c2ccc(OCc3ccc(CNC(=O)CCCNC(=O)C4CCCCN4Cc4cc(Cl)c(OCc5cccc(-c6ccccc6)c5C)cc4OCc4cccc(C#N)c4)cc3)c(OC)c2)cc1 (centres unmarked) [CP18]
IC50 (PD-1/PD-L1 interaction): 0.107 µM
melting point: 120.1 to 120.9 °C

COc1ccc(C(=O)/C=C/c2ccc(OCc3ccc(CNC(=O)CCCCNC(=O)C4CCCCN4Cc4cc(Cl)c(OCc5cccc(-c6ccccc6)c5C)cc4OCc4cccc(C#N)c4)cc3)c(OC)c2)cc1 (centres unmarked) [CP19]
IC50 (PD-1/PD-L1 interaction): > 1 µM

COc1ccc(C(=O)/C=C/c2ccc(OCc3ccc(CNC(=O)CCNC(=O)C4CCCCN4Cc4cc(Cl)c(OCc5cccc(-c6ccccc6)c5C)cc4OCc4cccc(C#N)c4)cc3)c(OC)c2)cc1 (centres unmarked) [CP20]
IC50 (PD-1/PD-L1 interaction): 0.0885 µM

COc1ccc(C(=O)/C=C/c2ccc(OCc3ccc(CNC(=O)C4CCN(C(=O)C5CCCCN5Cc5cc(Cl)c(OCc6cccc(-c7ccccc7)c6C)cc5OCc5cccc(C#N)c5)CC4)cc3)c(OC)c2)cc1 (centres unmarked) [CP21]
Death of HepG2 cells [1]: dose-dependently promoted
Kd (murine CXCL12): 0.0765 µM
Body weights of mice during treatment (B16-F10 melanoma tumors): did not change markedly
Tumor weights and volumes (B16-F10 melanoma tumors; 75 and 125 mg/kg): dose-dependently decreased
Tumor growth inhibition (TGI) (B16-F10 melanoma tumors; oral 125 mg/kg): 58.5%
CXCL12-mediated cell migration [2]: dose-dependently inhibited
In vivo antitumor efficacy [3]: similarly high in vivo antitumor efficacy
Hepatotoxicity and nephrotoxicity (serum biochemistry) [4]: did not induce hepatotoxicity and nephrotoxicity
CL ([5]; P.O. 18 mg/kg, mean ± SD): 140.8 ± 5.0 L/h/kg
Vz ([5]; P.O. 18 mg/kg, mean ± SD): 467.4 ± 184.8 L/kg
Tmax ([5]; rat, plasma, iv, I.V. 1 mg/kg): 0.083 h
AUC(0-inf) [5, 9]: 2.138 ± 0.0183 µg·h/mL
AUC(0-t) [5, 9]: 2.033 ± 0.0114 µg·h/mL
Cmax [5, 9]: 0.326 ± 0.0581 µg/mL
clearance [5, 9]: 0.5 L/h/kg
half-life [5, 9]: 12.4 ± 0.3 h
MRT last [5, 9]: 11.3 ± 0.4 h
MRT inf [5, 9]: 14 ± 0.5 h
Vd ([5]; rat, plasma, iv, I.V. 1 mg/kg, mean ± SD, read-out: Vz): 8.4 ± 0.2 L/kg
AUC(0-inf) [5, 10]: 0.128 ± 0.0046 µg·h/mL
AUC(0-t) [5, 10]: 0.128 ± 0.0048 µg·h/mL
Cmax [5, 10]: 0.0205 ± 0.0031 µg/mL
Tmax [5, 10]: 6.3 ± 0.8 h
half-life [5, 10]: 2.2 ± 0.8 h
MRT last [5, 10]: 5.9 ± 0.2 h
MRT inf [5, 10]: 6 ± 0.2 h
Cardiotoxicity (creatine kinase isoenzyme assay) [6]: did not cause cardiotoxicity
CXCL12-induced calcium responses [7]: dose-dependently inhibited
Morphological aberration of organs (H&E staining) [8]: no apparent morphological aberration
Kd (human CXCL12): 0.16 µM
